From publication PMC4525288, “Structures of FolT in substrate-bound and substrate-released conformations reveal a gating mechanism for ECF transporters” (Nature Communications, 2015)

Legend:
EfFolT [1] = target: T1, EfFolT (Enterococcus faecalis, UniProt Q837A3, N117A); test: biochemical
T1 construct: gene EF_0940

EfFolT [2] = target: T2, EfFolT (Enterococcus faecalis, UniProt Q837A3); test: isothermal titration calorimetry; crystal structure […] A; format: binding; conditions: read-out: Dissociation constant/KD
T2 construct: gene EF_0940; full-length S component without ECF module; N-terminal His6 tag (pET28a, NdeI/XhoI), E. coli BL21(DE3), detergent-purified
T2 sequence (Q837A3 1-179): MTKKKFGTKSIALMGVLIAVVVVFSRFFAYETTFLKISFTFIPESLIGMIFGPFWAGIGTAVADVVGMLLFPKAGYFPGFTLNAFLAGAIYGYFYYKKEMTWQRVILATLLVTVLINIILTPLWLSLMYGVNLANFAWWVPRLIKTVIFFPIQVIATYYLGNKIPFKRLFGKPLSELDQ

EfFolT [3] = target: T3, EfFolT (Enterococcus faecalis, UniProt Q837A3, Y129A); test: biochemical
T3 construct: gene EF_0940

EfFolT [4] = target: T4, EfFolT (Enterococcus faecalis, UniProt Q837A3, R26A); test: biochemical
T4 construct: gene EF_0940

EfFolT [5] = target: T5, EfFolT (Enterococcus faecalis, UniProt Q837A3, F80W); test: biochemical
T5 construct: gene EF_0940

EfFolT [6] = target: T6, EfFolT (Enterococcus faecalis, UniProt Q837A3, T81A); test: biochemical
T6 construct: gene EF_0940

EfFolT [7] = target: T7, EfFolT (Enterococcus faecalis, UniProt Q837A3, T121A); test: biochemical
T7 construct: gene EF_0940

EfFolT [8] = target: T8, EfFolT (Enterococcus faecalis, UniProt Q837A3, K36R); test: biochemical
T8 construct: gene EF_0940

EfFolT [9] = target: T9, EfFolT (Enterococcus faecalis, UniProt Q837A3, K145A); test: biochemical
T9 construct: gene EF_0940

EfFolT [10] = target: T10, EfFolT (Enterococcus faecalis, UniProt Q837A3, K145T); test: biochemical
T10 construct: gene EF_0940

EfFolT [11] = target: T11, EfFolT (Enterococcus faecalis, UniProt Q837A3, K36A); test: biochemical
T11 construct: gene EF_0940

Nc1nc2ncc(CNc3ccc(C(=O)N[C@@H](CCC(=O)O)C(=O)O)cc3)nc2c(=O)[nH]1 [folate]
Kd (EfFolT [1]): 68.6 ± 6.4 nM
Kd (EfFolT [2]): 29.8 ± 4.7 nM
Kd (EfFolT [3]): 635 ± 33.6 nM
Kd (EfFolT [4]): 252 ± 22 nM
Kd (EfFolT [5]): 499 ± 25.8 nM
Kd (EfFolT [6]): 813 ± 162 nM
Kd (EfFolT [7]): 288 ± 21.1 nM
Kd (EfFolT [8]): 91.5 ± 7.5 nM
Kd (EfFolT [9]): 3300 ± 198 nM
Kd (EfFolT [10]): 3690 nM
Kd (EfFolT [11]): 5400 nM
